Assay results as given in patent publication US4330550A, “Oxoimidazolinealkanoic acids and their salts and esters, their preparation and pharmaceutical compositions containing them” (A. Nattermann & Cie. GmbH, priority 1979, dated 1982).
Counter-ions that a name gives are not always drawn.

Test system: collagen-induced aggregation of platelets (human plasma with a high platelet content)
Experiment: Inhibition of collagen-induced aggregation of thrombocytes in vitro (method of Born)
Assay type: cell-based
Conditions: 0.3 μmol/ml
Excerpt: The aggregation of platelets in the presence of the compounds of the invention has been tested by the collagen-induced aggregation method of Born., Nature 4832/927, 29 (1962). The effect of the compounds in inhibiting thrombocyte aggregation was investigated in vitro on human plasma with a high platelet content.
The percentage inhibition of collagen-induced aggregation in vitro by compounds from the Examples indicated in Table 3, or combinations thereof with heparin, at a final concentration of 0.3 or 0.6 μmol of compound per ml of human plasma with a high platelet content, can be seen from the following Table.

Row | SMILES | % inhibition compared with the control (collagen-induced aggregation)
1 | O=C(O)CCCCCCCn1c(-c2ccccc2)c[nH]c1=O [Example 1c, sodium salt of 8-(2-oxo-5-phenyl-4-imidazolin-1-yl)-caprylic acid] | 80%
2 | O=C(O)CCCCCCn1c(-c2ccccc2)c[nH]c1=O [Example 2c] | 46%
3 | O=C(O)CCCCCCn1c(-c2ccc(Cl)cc2)c[nH]c1=O [Example 5c] | 63%
